How the values were obtained:
HvYS1 [1] = assay: Growth of fet3fet4 yeast (DDY4 strain) expressing HvYS1 on different iron sources; assay type: cell-based, barley (Hordeum vulgare L.); conditions: 30° C., 4 days
Source text: Since DDY4 strain is an yeast that is defective in the divalent iron-absorption system, is unable to grow in an iron-limiting medium (Eide, D. et al., Proc. Natl. Acad. Sci. USA, 1996, vol. 93, pp. 5624-5628) and is unable to grow by taking advantage of mugineic acid-iron (III) complex (Loulergue, C., Gene 1998, vol. 225, pp. 47-57), the yeast having an activity power for selectively absorbing mugineic acid-iron complex can grow on a medium supplemented with mugineic acid-iron(III) complex but the yeast having no above-mentioned activity power cannot grow on the medium.
(§1) Since double mutant fet3fet4 (DDY4 strain) of budding yeast (Saccharomyces cerevisiae) is defective in two genes responsible for absorption of divalent iron (fet3 (a gene for absorbing divalent iron after converting trivalent iron into divalent iron) and fet4 (a gene for absorbing divalent iron as it is)), the yeast can grow neither on an iron-limiting medium (Eide, D. et al., Proc. Natl. Acad. Sci. USA, 1996, vol. 93, pp. 5624-5628) nor by taking advantage of iron complexed with mugineic acid (Loulergue, C., Gene, 1998, vol. 225, pp. 47-57). To investigate the function of HvYS1 in iron transport, the present inventors have studied, using DDY4 strain into which HvYS1 cDNA has been introduced, whether the DDY4 strain in which the gene is expressed is able to grow on a medium containing Fe(III).MA as sole source of iron.
(§2) The following three plasmids were independently introduced into each of DDY4 strain and DY1457 (wild) strain: (1) a plasmid into which HvYS1 cDNA cloned at the NotI site of the expression vector pFL61 (by ATCC Co.) was inserted; (2) a plasmid into which ZmYS1 cDNA (Curie, C. et al., Nature, 2001, vol. 49, pp. 346-349) cloned in the same pFL61 vector was inserted; and (3) the pFL61 vector as a reference into which none of the above-mentioned genes was inserted.
Subsequently, the inventors conducted cultivation tests by mixing three different iron sources, or Fe(III).citrate, Fe(III).MA, and Fe(III).NA, with the medium in order to determine substrate selectivity, if any, of HvYS1. The yeast was cultivated in minimum media—Ura supplemented with 50 μM Fe(III).citrate, 10 μM Fe(III).MA, or 10 μM Fe(II).NA, and 10 μM FeCl2 or FeCl3 as a blank. Also, 10 μM of BPDS that is a potent chelating agent of divalent iron was added to the medium supplemented with 10 μM of Fe(III).MA in order to investigate whether the growth of the yeast is inhibited. Fe(III).MA was prepared according to von Wiren, N. et al. , Biochem. Biophys. Acta, 1998, vol. 1371, pp. 143-155. Nicotinamine was purchased from T. Hasegawa Co., and Fe(II).NA was prepared according to Schaaf, G. et al. , J. Biol. Chem., 2004, vol. 279, pp. 9091-9096. The yeast was cultivated at 30° C. for 4 days. Three solutions of the yeast culture (diluted to optical densities (OD) of 0.2, 0.02 and 0.002, respectively, at a wavelength of 600 nm) were spotted on a plate.

HvYS1 [2] = assay: Electrophysiological activity (voltage clamp) in HvYS1-expressing Xenopus oocyte cells; assay type: cell-based, barley (Hordeum vulgare L.); conditions: final concentration of 50 μM, fixed voltage of −60 mV; compared with other mugineic acid-metal complexes and nicotianamine Fe(II) complex
Source text: The activity power for selectively absorbing mugineic acid-iron complex may be also confirmed by observing cell membrane voltage changes using Xenopus oocyte cells. The voltage change of the cell membrane may be obtained by directly measuring the voltage difference between the inside and outside of the cell membrane by, for example, a membrane voltage clamp method, wherein the voltage change of the oocyte cell membrane occurs in accordance with the absorption of mugineic acid-iron complex via the transporter protein expressed in the oocyte cell after adding a solution containing mugineic acid-iron complex to the oocyte cell into which the transporter gene of the invention has been introduced. […]
Subsequently, the inventors have formed mugineic acid complexes of copper, zinc, nickel, manganese, and cobalt as substrates other than Fe(III).MA as in the case of iron in order to determine substrate selectivity, if any, of HvYS1 protein. The oocyte cells in which HvYS1 is expressed were set in a chamber filled with the ND-96 solution, and electrophysiological activity was measured after spraying 10 μL of each 5 mM substrate (final concentration of 50 μM). […] ORIGIN 6.1 software (by Microcal Software Co.) was used for programming and storage of voltage, and analysis of the recorded and stored data. […]
Target sequence in this assay (as listed by the source): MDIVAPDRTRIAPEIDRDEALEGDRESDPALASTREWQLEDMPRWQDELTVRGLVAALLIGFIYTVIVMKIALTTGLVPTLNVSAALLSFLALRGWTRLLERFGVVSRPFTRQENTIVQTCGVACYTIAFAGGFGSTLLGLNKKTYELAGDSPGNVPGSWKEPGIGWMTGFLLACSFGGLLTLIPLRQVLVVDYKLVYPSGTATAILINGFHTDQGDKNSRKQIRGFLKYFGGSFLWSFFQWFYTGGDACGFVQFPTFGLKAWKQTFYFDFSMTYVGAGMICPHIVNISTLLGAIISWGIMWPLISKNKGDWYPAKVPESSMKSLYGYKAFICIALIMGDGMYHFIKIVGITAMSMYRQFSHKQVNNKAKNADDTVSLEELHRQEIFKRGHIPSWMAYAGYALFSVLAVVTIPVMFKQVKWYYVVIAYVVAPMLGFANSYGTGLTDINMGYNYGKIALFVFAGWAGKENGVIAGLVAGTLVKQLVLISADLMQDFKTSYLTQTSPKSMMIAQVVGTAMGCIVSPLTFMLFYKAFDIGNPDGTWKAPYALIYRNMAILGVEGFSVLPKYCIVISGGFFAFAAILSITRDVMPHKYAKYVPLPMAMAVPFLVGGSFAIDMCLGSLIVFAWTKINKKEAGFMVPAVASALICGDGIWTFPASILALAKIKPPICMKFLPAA

ZmYS1 = molecular target: T1, ZmYS1 (Zea mays, UniProt Q9AY27); assay: Growth of fet3fet4 yeast (DDY4 strain) expressing ZmYS1 on different iron sources; assay type: cell-based, maize; conditions: DDY4 strain expressing ZmYS1, 10 μM, FIG. 3
T1 construct: expressed in transfected cells; host or cells: Saccharomyces cerevisiae fet3fet4 double mutant (DDY4 strain), vector pFL61
T1 sequence (Q9AY27 1-682): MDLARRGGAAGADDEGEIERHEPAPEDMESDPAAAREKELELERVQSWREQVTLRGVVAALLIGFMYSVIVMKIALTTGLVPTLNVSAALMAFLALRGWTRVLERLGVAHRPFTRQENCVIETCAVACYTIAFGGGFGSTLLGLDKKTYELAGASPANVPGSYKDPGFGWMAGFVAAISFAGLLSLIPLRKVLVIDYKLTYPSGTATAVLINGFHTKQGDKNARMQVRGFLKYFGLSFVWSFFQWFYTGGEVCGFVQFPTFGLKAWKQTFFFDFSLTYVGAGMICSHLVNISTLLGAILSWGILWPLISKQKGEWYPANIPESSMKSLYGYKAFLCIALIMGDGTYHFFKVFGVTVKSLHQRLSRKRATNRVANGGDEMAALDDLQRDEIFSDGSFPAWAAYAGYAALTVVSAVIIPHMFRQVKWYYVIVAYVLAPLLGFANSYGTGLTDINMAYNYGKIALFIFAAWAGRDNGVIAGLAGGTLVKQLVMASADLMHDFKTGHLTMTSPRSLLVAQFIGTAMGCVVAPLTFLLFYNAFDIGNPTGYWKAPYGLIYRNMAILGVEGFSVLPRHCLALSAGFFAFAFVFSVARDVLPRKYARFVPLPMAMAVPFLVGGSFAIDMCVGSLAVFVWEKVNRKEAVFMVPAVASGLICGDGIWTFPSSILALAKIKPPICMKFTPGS
Source text: as §1
as §2, with “inserted. […]” for “inserted.”

| Compound | growth of DDY4 strain expressing HvYS1 with the substance as sole iron source (HvYS1 [1]; 10 μM in minimum media -Ura) | growth of DDY4 strain expressing HvYS1 with the substance as sole iron source (HvYS1 [1]; 50 μM in minimum media -Ura) | voltage change in HvYS1-expressing oocyte cells (HvYS1 [2]) | growth of DDY4 strain expressing HvYS1 in the presence of BPDS (HvYS1 [1]; 10 μM Fe(III).MA plus 10 μM BPDS (Fe(II) chelating agent)) | transport of the iron complex by ZmYS1 (ZmYS1) |
| --- | --- | --- | --- | --- | --- |
| [Cl][Fe][Cl] [FeCl2] | did not grow |  |  |  |  |
| [Cl][Fe]([Cl])[Cl] [FeCl3] | did not grow |  |  |  |  |
| citric acid-iron complex (iron-ammonium citrate complex) [Fe(III).citrate] |  | did not grow |  |  |  |
| mugineic acid-iron(III) complex [Fe(III).MA] | grew at the same level as DDY4 strain expressing ZmYS1 |  | overwhelmingly strong voltage change | grew | transports |
| nicotianamine-iron complex [Fe(II).NA] | does not absorb Fe(II).NA, or growth was strongly inhibited |  |  |  | transports |

From US20110016579A1, “Gene of transporter selective to mugineic acid-iron complex” (SUNTORY LIMITED, priority 2005, published 2011)
